Results as given in patent EP4729529A1, “PREPARATION OF PEPTIDE INHIBITOR OF INTERLEUKIN-23 RECEPTOR AND USE THEREOF” (Xizang Haisco Pharmaceutical Co., Ltd., priority 2023, dated 2024).
Starred links: 1 amine or outer side, 2 acyl side, 3 side chain; linkers in the order of their positions; H or OH if unused. Positions of bridges follow the written chain, without caps; N, C: chain ends. Non-standard residues stand in square brackets, D forms with d. Residues, ends and D or L forms follow the SMILES beside them. Phe(4-OC2H4NH2,2,3-(CH2)3) = NCCOc1ccc(C[C@H](N)C(=O)O)c2c1CCC2; Trp(7-cPr) = N[C@@H](Cc1c[nH]c2c(C3CC3)cccc12)C(=O)O; NH(CH2CH2O)4CH2CO = O=C(COCCOCCOCCOCCN[*:1])[*:2]; Trp(7-Me) = Cc1cccc2c(C[C@H](N)C(=O)O)c[nH]c12; 2Nal = N[C@@H](Cc1ccc2ccccc2c1)C(=O)O; X1 = O=C(C(N[*:1])C1(S[*:3])CC1)[*:2]; Thp(SO2) = NC1(C(=O)O)CCS(=O)(=O)CC1; AEF = NCCOc1ccc(C[C@H](N)C(=O)O)cc1; 3Pal = N[C@@H](Cc1cccnc1)C(=O)O; Cit = NC(=O)NCCC[C@H](N)C(=O)O; Pen = CC(C)(S)[C@H](N)C(=O)O; Thp = NC1(C(=O)O)CCOCC1; AEEA = NCCOCCOCC(=O)O; PEG1 = NCCOCCC(=O)O; Ahx = NCCCCCC(=O)O; Sar = CNCC(=O)O

Tests used:
IL-23R = biological target: T1, IL-23R (Homo sapiens, UniProt Q5VWK5); assay: IL-23R reporter gene assay (HEK-blue IL23 reporter gene cell line, rhIL23 stimulation); assay type: cell-based; settings: Inhibition of IL-23R, rhIL23 1 ng/mL, 24 hours
T1 construct: host or cells: HEK-blue IL23 reporter gene cell line
T1 sequence (Q5VWK5 24-629): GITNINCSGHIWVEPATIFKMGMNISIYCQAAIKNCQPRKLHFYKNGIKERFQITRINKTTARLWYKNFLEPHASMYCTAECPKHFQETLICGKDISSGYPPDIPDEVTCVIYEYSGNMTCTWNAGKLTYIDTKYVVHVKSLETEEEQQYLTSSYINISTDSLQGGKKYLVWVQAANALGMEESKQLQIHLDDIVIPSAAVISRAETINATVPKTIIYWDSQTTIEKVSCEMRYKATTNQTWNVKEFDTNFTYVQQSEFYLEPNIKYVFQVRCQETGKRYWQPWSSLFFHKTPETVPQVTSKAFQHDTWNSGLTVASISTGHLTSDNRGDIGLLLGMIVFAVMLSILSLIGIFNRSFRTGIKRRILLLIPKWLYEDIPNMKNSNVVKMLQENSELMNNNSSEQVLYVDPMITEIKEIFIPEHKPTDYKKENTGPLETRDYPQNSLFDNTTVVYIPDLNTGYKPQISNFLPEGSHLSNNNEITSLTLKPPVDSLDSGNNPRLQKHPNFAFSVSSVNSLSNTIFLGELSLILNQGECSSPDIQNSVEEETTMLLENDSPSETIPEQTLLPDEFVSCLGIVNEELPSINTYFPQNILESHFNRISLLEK
Description: 2. IL-23R reporter gene assay
The purpose of this assay was to assess the ability of compounds to inhibit the binding of IL23p19 to IL23R in a reporter gene system. The HEK-blue IL23 reporter gene cell line (Invivogen, hkb-il23) was cultured in DMEM + 10% FBS + 100 ug/mL Normocin medium. When the cell density reached 80%-90%, 5000 cells/well were plated into a 384-well plate, and the plate was incubated overnight at 37°C with 5% CO2. Then, the compound stock solution was diluted in DMSO, and 40 nL of the dilution was transferred into the 384-well culture plate by Echo. The plate was incubated at 37°C with 5% CO2 for 0.5 hours. 40 nL/well of rhIL23 (R&D, 1290-IL) was added to the 384-well cell culture plate at a final concentration of 1 ng/mL, and the plate was incubated at 37°C with 5% CO2 for 24 hours. 18 µL of Quanti-Blue™ solution was added to a new 384-well plate. 2 µL/well of cell culture supernatant was transferred into the 384-well plate prepared in Step 6, and the plate was incubated at 37°C with 5% CO2 for 1 hour. Absorbance values at […] were read on BMG. The binding ability of the compounds was assessed using the following formula, and IC50 values were obtained by fitting with Graphpad.
Calculation formula of inhibition rate: [formula] • where Data negative: mean of DMSO control group; and • Data positive: mean of non-IL23-stimulated group
The calculation formula of IC50 was as follows: Y = Bottom + (Top−Bottom)/(1+10^(∧)((LogIC50−X)*HillSlope)) [formula] • where X: concentration of compound; and • Y: inhibition rate of compound Table 2. Inhibition of IL-23R by test compounds

IL-23α/IL-12β and IL-23R = biological target: T2, IL-23α/IL-12β and IL-23R (Homo sapiens, UniProt Q5VWK5); assay: IL-23α/IL-12β and IL-23R binding assay (TR-FRET/HTRF); settings: inhibition of the binding of IL-23α/IL-12β to IL-23R, TR-FRET; both proteins 0.3 nM
T2 construct: purchased ACRO ILR-H82F3 (IL-23R); ILB-H52W5 (IL-23α/IL-12β)
T2 sequence (Q5VWK5 24-353 limits assumed): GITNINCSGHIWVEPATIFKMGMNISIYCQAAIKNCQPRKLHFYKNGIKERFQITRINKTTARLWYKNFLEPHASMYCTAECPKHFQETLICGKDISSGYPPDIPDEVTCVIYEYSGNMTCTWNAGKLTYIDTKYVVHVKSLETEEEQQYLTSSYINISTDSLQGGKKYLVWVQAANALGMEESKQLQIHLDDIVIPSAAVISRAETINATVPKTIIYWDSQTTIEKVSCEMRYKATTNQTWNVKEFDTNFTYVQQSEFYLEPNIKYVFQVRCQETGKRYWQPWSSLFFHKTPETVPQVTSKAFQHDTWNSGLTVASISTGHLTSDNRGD
Description: 1. IL-23α/IL-12β and IL-23R binding assay
Compounds were tested for their inhibition on the binding of IL-23α/IL-12β to IL-23R by the TR-FRET method. Solutions of proteins IL-23α/IL-12β (ACRO, Cat# ILB-H52W5) and IL-23R (ACRO, Cat# ILR-H82F3) were prepared in reaction buffer PPI (PerkinElmer, Cat# 61DB10RDF). The final concentrations of IL-23α/IL-12β and IL-23R in the reaction mixture were both 0.3 nM. Positive reference Guselkumab was 3-fold diluted from an initial concentration of 30 nM, with 10 doses. 0.1 µL of the positive reference diluted in the reaction buffer was delivered to a 384-well plate (Grenier, Cat# 784075) by the acoustic liquid delivery technique (Echo 655), and the plate was centrifuged at 1000 rpm for 1 minute. 2.5 µL of IL-23α/IL-12β solution was transferred into the 384-well reaction plate, and the plate was centrifuged at 1000 rpm for 1 minute, and incubated at 25°C for 60 minutes. 2.5 µL of IL-23R solution was transferred into the 384-well reaction plate, and the plate was centrifuged at 1000 rpm for 1 minute. 5 µL of Streptavidin-Tb cryptate and Anti 6HIS-d2 detection mixture was transferred into the 384-well reaction plate, and the plate was centrifuged at 1000 rpm for 1 minute, and incubated at 25°C for 60 minutes. Finally, the HTRF signal (Ratio 665/620 nm) was read with a BMG high-throughput drug screening multifunctional microplate reader. IC50 values were obtained by nonlinear regression curve fitting using GraphPad Prism software.

[1] = Pharmacokinetic test in mice (intravenous and intragastric, plasma LC-MS/MS); assay type: in vivo; settings: male, mouse, Balb/c mice
Description: 4. Pharmacokinetic test in mice
4.1. Experimental animals: Male Balb/c mice (20-25 g, 18 mice/compound) were purchased from Chengdu Dossy Experimental Animals Co., Ltd.
4.2. Experimental design: On the day of the experiment, the Balb/c mice were randomly grouped by body weight. The animals were fasted with water available for 12-14 h one day before the administration, and were fed 4 h after the administration. Table 4. Administration information
Before and after administration, 0.06 mL of blood was taken from the orbit under isoflurane anaesthesia, and placed in an EDTAK2 centrifuge tube. The tube was centrifuged at 5000 rpm at 4°C for 10 min, and plasma was collected. The blood collection time points for the intravenous group and intragastric group were both 0 min, 5 min, 15 min, 30 min, 1 h, 2 h, 4 h, 6 h, 8 h, and 24 h. Before analysis and detection, all samples were stored at -80°C, and the samples were quantitatively analysed by LC-MS/MS. Table 5. Pharmacokinetic parameters of test compounds in mouse plasma

Structure (SMILES)	IC50 (IL-23R) [nM]	IC50 (IL-23α/IL-12β and IL-23R) [nM]	AUC(0-t) ([1]; iv, i.v. (1 mg/kg)) [ng·h/mL]	clearance ([1]; iv, i.v. (1 mg/kg)) [mL/min/kg]	Vd ([1]; iv, i.v. (1 mg/kg), read-out: Vdss) [L/kg]	AUC(0-t) ([1]; po, i.g. (10 mg/kg)) [ng·h/mL]	bioavailability ([1]; po, i.g. (10 mg/kg)) [%]
CC(=O)NCCCC[C@@H]1NC(=O)[C@H](Cc2c[nH]c3c(C)cccc23)NC(=O)[C@H]([C@@H](C)O)NC(=O)[C@H](Cc2c[nH]cn2)NC(=O)[C@H]2NC(=O)COCCOCCOCCOCCNC(=O)CC[C@@H](C(=O)N[C@@H](CC(N)=O)C(=O)N[C@@H](Cc3cccnc3)C(=O)N(C)CC(N)=O)NC(=O)C3(CCOCC3)NC(=O)[C@H](Cc3ccc4ccccc4c3)NC(=O)[C@H](Cc3ccc(OCCN)cc3)NC(=O)[C@@H](NC1=O)C(C)(C)SSC2(C)C [Compound 29] ([NH(CH2CH2O)4CH2CO][Pen]HT[Trp(7-Me)]K(Ac)[Pen][AEF][2Nal][Thp]EN[3Pal][Sar]-NH2; disulfide 2-7; lactam N-11)	1.72	0.089	–	–	–	–	–
CC(=O)NCCCC[C@@H]1NC(=O)[C@H](Cc2c[nH]c3c(C)cccc23)NC(=O)[C@H]([C@@H](C)O)NC(=O)[C@H](CC(N)=O)NC(=O)[C@@H](NC(C)=O)C(C)(C)SSC(C)(C)[C@@H](C(=O)N[C@@H](Cc2ccc(OCCN)cc2)C(=O)N[C@@H](Cc2ccc3ccccc3c2)C(=O)NC2(C(=O)N[C@@H](CCC(=O)O)C(=O)N[C@@H](CC(N)=O)C(=O)N[C@@H](Cc3cccnc3)C(=O)N(C)CC(N)=O)CCS(=O)(=O)CC2)NC1=O [Compound 9]	2.56	0.056	–	–	–	–	–
CC(=O)NCCCC[C@@H]1NC(=O)[C@H](Cc2c[nH]c3c(C)cccc23)NC(=O)[C@H]([C@@H](C)O)NC(=O)[C@H](Cc2c[nH]cn2)NC(=O)[C@H]2NC(=O)CCCCCNC(=O)CC[C@@H](C(=O)N[C@@H](CC(N)=O)C(=O)N[C@@H](Cc3cccnc3)C(=O)N(C)CC(N)=O)NC(=O)C3(CCOCC3)NC(=O)[C@H](Cc3ccc4ccccc4c3)NC(=O)[C@H](Cc3ccc(OCCN)cc3)NC(=O)[C@@H](NC1=O)C(C)(C)SSC2(C)C [Compound 11] ([Ahx][Pen]HT[Trp(7-Me)]K(Ac)[Pen][AEF][2Nal][Thp]EN[3Pal][Sar]-NH2; disulfide 2-7; lactam N-11)	7.47	0.124	–	–	–	–	–
CC(=O)N[C@@H]1C(=O)N[C@@H](Cc2c[nH]cn2)C(=O)N[C@@H]([C@@H](C)O)C(=O)N[C@@H](Cc2c[nH]c3c(C4CC4)cccc23)C(=O)N[C@@H](CCCNC(N)=O)C(=O)N[C@H](C(=O)N[C@@H](Cc2ccc(OCCN)cc2)C(=O)N[C@@H](Cc2ccc3ccccc3c2)C(=O)NC2(C(=O)N[C@@H](CCC(=O)O)C(=O)N[C@@H](CC(N)=O)C(=O)N[C@@H](Cc3cccnc3)C(=O)N(C)CC(N)=O)CCOCC2)C(C)(C)SSC1(C)C [Compound 12] (Ac-[Pen]HT[Trp(7-cPr)][Cit][Pen][AEF][2Nal][Thp]EN[3Pal][Sar]-NH2; disulfide 1-6)	3.58	0.0417	–	–	–	–	–
CC(=O)NCCCC[C@@H]1NC(=O)[C@H](Cc2c[nH]c3c(C)cccc23)NC(=O)[C@H]([C@@H](C)O)NC(=O)[C@H](Cc2c[nH]cn2)NC(=O)[C@H]2NC(=O)CCOCCNC(=O)CC[C@@H](C(=O)N[C@@H](CC(N)=O)C(=O)N[C@@H](Cc3cccnc3)C(=O)N(C)CC(N)=O)NC(=O)C3(CCOCC3)NC(=O)[C@H](Cc3ccc4ccccc4c3)NC(=O)[C@H](Cc3ccc(OCCN)cc3)NC(=O)[C@@H](NC1=O)C(C)(C)SSC2(C)C [Compound 28] ([PEG1][Pen]HT[Trp(7-Me)]K(Ac)[Pen][AEF][2Nal][Thp]EN[3Pal][Sar]-NH2; disulfide 2-7; lactam N-11)	6.27	0.122	–	–	–	–	–
CC(=O)NCCCC[C@@H]1NC(=O)[C@H](Cc2c[nH]c3c(C)cccc23)NC(=O)[C@H]([C@@H](C)O)NC(=O)[C@H](Cc2c[nH]cn2)NC(=O)[C@H]2NC(=O)COCCOCCNC(=O)CC[C@@H](C(=O)N[C@@H](CC(N)=O)C(=O)N[C@@H](Cc3cccnc3)C(=O)N(C)CC(N)=O)NC(=O)C3(CCOCC3)NC(=O)[C@H](Cc3ccc4ccccc4c3)NC(=O)[C@H](Cc3ccc(OCCN)cc3)NC(=O)[C@@H](NC1=O)C(C)(C)SSC2(C)C [Compound 27] ([AEEA][Pen]HT[Trp(7-Me)]K(Ac)[Pen][AEF][2Nal][Thp]EN[3Pal][Sar]-NH2; disulfide 2-7; lactam N-11)	1.37	0.114	–	–	–	–	–
CC(=O)NC1C(=O)N[C@@H](Cc2c[nH]cn2)C(=O)N[C@@H]([C@@H](C)O)C(=O)N[C@@H](Cc2c[nH]c3c(C4CC4)cccc23)C(=O)N[C@@H](CCC(N)=O)C(=O)N[C@H](C(=O)N[C@@H](Cc2ccc(OCCN)c3c2CCC3)C(=O)N[C@@H](Cc2ccc3ccccc3c2)C(=O)NC2(C(=O)N[C@@H](CCC(=O)O)C(=O)N[C@@H](CC(N)=O)C(=O)N[C@@H](Cc3cccnc3)C(=O)N(C)CC(N)=O)CCS(=O)(=O)CC2)C(C)(C)SSC12CC2 (stereo partly shown) [Compound 24] (Ac-[X1]HT[Trp(7-cPr)]Q[Pen][Phe(4-OC2H4NH2,2,3-(CH2)3)][2Nal][Thp(SO2)]EN[3Pal][Sar]-NH2; disulfide 1-6)	9.38	0.063	6770 ± 183	2.42 ± 0.064	0.225 ± 0.017	227 ± 139	0.335 ± 0.2
